Test results: US8507714B2, “7-membered ring compound and method of production and pharmaceutical application thereof” (Daiichi Sankyo Company, Limited, priority 2004, dated 2013)

Test system: not given
Details: not given

| SMILES | melting point |
| --- | --- |
| COc1ccc(Cl)cc1C[C@H]1CNC(=O)[C@@H](C)N(S(=O)(=O)c2ccc(Cl)cc2)C1=O | 78 to 80 °C |
| O=C(CN1CC(Cc2ccccc2)C(=O)N(S(=O)(=O)c2ccc(Cl)cc2)CC1=O)NCc1ccccc1 (centres unmarked) | 187 to 190 °C |
| COc1ccc(Cl)cc1CC1CNC(=O)CN(S(=O)(=O)c2ccc(Cl)cc2)C1=O (centres unmarked) [Compound 29, 6-(5-chloro-2-methoxybenzyl)-4-[(4-chlorophenyl)sulfonyl]-1,4-diazepan-2,5-dione] | 110 to 112 °C |
| CC[C@@H](NC(=O)N1CC(=O)NCC(Cc2cc(Cl)ccc2OC)C1=O)C(=O)Nc1ccc(C)c(C(=O)O)c1 (some centres unmarked) | 132 to 134 °C |
| COC(=O)COc1ccc(Cl)cc1CC1CNC(=O)CN(S(=O)(=O)c2ccc(Cl)cc2)C1=O (centres unmarked) | 138 to 140 °C |
| CC[C@@H](NC(=O)N1CC(=O)NC[C@@H](Cc2cc(Cl)ccc2OC)C1=O)c1cccc(C(=O)[O-])c1.[Na+] | 161 to 163 °C |
| CC[C@@H](NC(=O)N1CC(=O)NC[C@@H](Cc2cc(Cl)ccc2OC)C1=O)c1cccc(C(=O)O)c1 [Compound 91, 3-[(1R)-1-({[(6R)-6-(5-chloro-2-methoxybenzyl)-3,7-dioxo-1,4-diazepan-1-yl]carbonyl}amino)propyl]benzoic Acid] | 121 to 123 °C |
| N#Cc1ccc(S(=O)(=O)N2CC(=O)NC/C(=C\c3ccccc3)C2=O)cc1 | 239 °C (dec.) |
| COc1ccc(F)cc1/C=C1\CNC(=O)CN(S(=O)(=O)c2ccc(Cl)s2)C1=O | 150 to 153 °C |
| COc1ccc(Cl)cc1CC1CNC(=O)CN(C(=O)Nc2cccc(NC(C)=O)c2)C1=O (centres unmarked) | 130 to 131 °C |
| CC[C@@H](NC(=O)N1CC(=O)NCC(Cc2cc(Cl)ccc2OC)C1=O)C(=O)Nc1nnn[nH]1 (some centres unmarked) | 141 to 142 °C |
| COc1cc(Cl)c(F)cc1CC1CNC(=O)CN(S(=O)(=O)c2ccc(Cl)cc2)C1=O (centres unmarked) | 80 to 90 °C |
| COC(=O)C[C@@H]1C(=O)NC[C@H](Cc2cc(F)ccc2OC)C(=O)N1S(=O)(=O)c1ccc(Cl)cc1 | 73 to 76 °C |
| Cc1cccc(CC2CNC(=O)CN(S(=O)(=O)c3ccc(Cl)cc3)C2=O)c1 (centres unmarked) | 64 to 66 °C |

Test system: DNFB-induced dermatitis in C3H/HeN mice
Details: 10 mg/kg orally once a day; 24 hours after DNFB application at fifth application; female C3H/HeN mice
Experimental: Effect of Test Compounds on Dermatitis Model Induced by Repeated Application of Hapten
As a control group, acetone:olive oil (1:3) was applied by the same protocol. Ear thickness was measured at every week before DNFB application and 24, 48 and 72 hours after DNFB application by using microgauge (Mitutoyo), and ear edema was evaluated by the increase in ear thickness compared to the ear thickness before the first DNFB application. […] The test compound was suspended in 0.5% hydroxypropylcellulose in distilled water (hereinafter referred to as “0.5% HPC-distilled water”) and was administered orally at doses of 2 and 10 mg/kg once a day, every day from just before the first application of hapten to the end of the experiment. Further, as a control, 0.5% HPC-distilled water instead of the test compound was administered by the same methods. The number of mice used in this experiment was seven per group.

| SMILES | inhibition rate of the skin reaction |
| --- | --- |
| COc1ccc(Cl)cc1CC1CNC(=O)CN(S(=O)(=O)c2ccc(Cl)c(N)c2)C1=O.Cl (centres unmarked) [Compound 90, 4-[(3-amino-4-chlorophenyl)sulfonyl]-6-(5-chloro-2-methoxybenzyl)-1,4-diazepan-2,5-dione Hydrochloride] | 25.1% |
| COc1ccc(Cl)cc1CC1CNC(=O)CN(S(=O)(=O)c2ccc(Cl)cc2)C1=O (centres unmarked) [Compound 29, 6-(5-chloro-2-methoxybenzyl)-4-[(4-chlorophenyl)sulfonyl]-1,4-diazepan-2,5-dione] | 31.0% |
| CC[C@@H](NC(=O)N1CC(=O)NC[C@@H](Cc2cc(Cl)ccc2OC)C1=O)c1cccc(C(=O)O)c1 [Compound 91, 3-[(1R)-1-({[(6R)-6-(5-chloro-2-methoxybenzyl)-3,7-dioxo-1,4-diazepan-1-yl]carbonyl}amino)propyl]benzoic Acid] | 26.1% |
